Source: ChEMBL document CHEMBL3885861, “Open TG-GATES”

Species: Rattus norvegicus
Experiment: Open TG-GATES - Regimen: Single
Format: toxicity, organism-based, Sprague-Dawley
Set-up: regimen Single, gender Male, age 6 weeks
Conditions: in vivo, po, 30 mg/kg, route gavage, dose level Low; for APTT / Bas / Eos / Fbg / Hb / Ht / Lym / MCH / MCHC / MCV / Mono / Neu / PT / Plat / RBC / Ret / WBC: tissue Blood; for KIDNEY_L / KIDNEY_R / KIDNEY_TOTAL: tissue Kidney; for LIVER: tissue Liver; for A/G / ALP / ALT / AST / BUN / CRE / Ca / Cl / DBIL / GLC / IP / K / LDH / Na / PL / RALB / TBIL / TC / TG / TP / gamma-GTP: tissue Plasma

## NC(=O)N/N=C/c1ccc([N+](=O)[O-])o1 [NITROFURAZONE]
3 h
  TERMINAL_BW: 181.5 g
  APTT: 16.4 s
  Bas: 0.2%
  Eos: 0.8%
  Fbg: 262.8 mg/dL
  Hb: 13 g/dL
  Ht: 40.6%
  Lym: 68.6%
  MCH: 21.7 pg
  MCHC: 31.9%
  MCV: 67.8 fL
  Mono: 3.6%
  Neu: 26%
  PT: 14.8 s
  Plat: 116.3 x10_4/uL
  RBC: 598.8 x10_4/ul
  Ret: 10.6%
  WBC: 92.5 x10_2/uL
  KIDNEY_L: 0.8 g
  KIDNEY_R: 0.8 g
  KIDNEY_TOTAL: 1.6 g
  LIVER: 8.1 g
  A/G: 0.9
  ALP: 1547.4 IU/L
  ALT: 43 IU/L
  AST: 76.8 IU/L
  BUN: 10.8 mg/dL
  CRE: 0.2 mg/dL
  Ca: 11.3 mg/dL
  Cl: 106.4 meq/L
  DBIL: 0.01 mg/dL
  GLC: 175 mg/dL
  IP: 9.7 mg/dL
  K: 4 meq/L
  LDH: 47.2 IU/L
  Na: 142.8 meq/L
  PL: 145.4 mg/dL
  RALB: 2.4 g/dL
  TBIL: 0.054 mg/dL
  TC: 81 mg/dL
  TG: 48 mg/dL
  TP: 5.2 g/dL
  gamma-GTP: 1.6 IU/L
6 h
  TERMINAL_BW: 178.8 g
  APTT: 16 s
  Bas: 0%
  Eos: 0.8%
  Fbg: 253.2 mg/dL
  Hb: 12.8 g/dL
  Ht: 39.9%
  Lym: 71%
  MCH: 21.3 pg
  MCHC: 32.1%
  MCV: 66.5 fL
  Mono: 2.8%
  Neu: 24%
  PT: 14.6 s
  Plat: 116.1 x10_4/uL
  RBC: 599.8 x10_4/ul
  Ret: 10.6%
  WBC: 83.2 x10_2/uL
  KIDNEY_L: 0.8 g
  KIDNEY_R: 0.8 g
  KIDNEY_TOTAL: 1.6 g
  LIVER: 7.6 g
  A/G: 0.9
  ALP: 1430.2 IU/L
  ALT: 43.6 IU/L
  AST: 76.8 IU/L
  BUN: 7.8 mg/dL
  CRE: 0.2 mg/dL
  Ca: 11 mg/dL
  Cl: 105 meq/L
  DBIL: 0.01 mg/dL
  GLC: 167.4 mg/dL
  IP: 10.3 mg/dL
  K: 4 meq/L
  LDH: 52.6 IU/L
  Na: 141 meq/L
  PL: 139 mg/dL
  RALB: 2.4 g/dL
  TBIL: 0.062 mg/dL
  TC: 83.6 mg/dL
  TG: 33.2 mg/dL
  TP: 5.1 g/dL
  gamma-GTP: 1.6 IU/L
9 h
  TERMINAL_BW: 179 g
  APTT: 16 s
  Bas: 0%
  Eos: 1%
  Fbg: 264.6 mg/dL
  Hb: 12.7 g/dL
  Ht: 39.3%
  Lym: 76.6%
  MCH: 21.1 pg
  MCHC: 32.4%
  MCV: 65.3 fL
  Mono: 2.8%
  Neu: 19%
  PT: 14.9 s
  Plat: 105.2 x10_4/uL
  RBC: 601.4 x10_4/ul
  Ret: 10.5%
  WBC: 60.9 x10_2/uL
  KIDNEY_L: 0.8 g
  KIDNEY_R: 0.8 g
  KIDNEY_TOTAL: 1.7 g
  LIVER: 7.2 g
  A/G: 0.9
  ALP: 1367.6 IU/L
  ALT: 42.8 IU/L
  AST: 76 IU/L
  BUN: 7.4 mg/dL
  CRE: 0.1 mg/dL
  Ca: 10.8 mg/dL
  Cl: 105.6 meq/L
  DBIL: 0.016 mg/dL
  GLC: 163.6 mg/dL
  IP: 10.3 mg/dL
  K: 3.7 meq/L
  LDH: 48.8 IU/L
  Na: 141.4 meq/L
  PL: 133.2 mg/dL
  RALB: 2.4 g/dL
  TBIL: 0.064 mg/dL
  TC: 72.4 mg/dL
  TG: 40.4 mg/dL
  TP: 5.2 g/dL
  gamma-GTP: 1.2 IU/L
24 h
  TERMINAL_BW: 197.2 g
  APTT: 15.8 s
  Bas: 0.2%
  Eos: 0.8%
  Fbg: 260 mg/dL
  Hb: 12.3 g/dL
  Ht: 38%
  Lym: 79%
  MCH: 21.5 pg
  MCHC: 32.3%
  MCV: 66.5 fL
  Mono: 3.6%
  Neu: 16%
  PT: 14.8 s
  Plat: 112 x10_4/uL
  RBC: 571.2 x10_4/ul
  Ret: 10.6%
  WBC: 87.3 x10_2/uL
  KIDNEY_L: 0.9 g
  KIDNEY_R: 0.9 g
  KIDNEY_TOTAL: 1.8 g
  LIVER: 9.3 g
  A/G: 0.9
  ALP: 1764.6 IU/L
  ALT: 50.2 IU/L
  AST: 75.2 IU/L
  BUN: 14.6 mg/dL
  CRE: 0.2 mg/dL
  Ca: 11.4 mg/dL
  Cl: 104.6 meq/L
  DBIL: 0.014 mg/dL
  GLC: 179.2 mg/dL
  IP: 9.1 mg/dL
  K: 4 meq/L
  LDH: 64.2 IU/L
  Na: 142 meq/L
  PL: 145.6 mg/dL
  RALB: 2.5 g/dL
  TBIL: 0.048 mg/dL
  TC: 80.2 mg/dL
  TG: 62.6 mg/dL
  TP: 5.4 g/dL
  gamma-GTP: 1 IU/L
